Measured values taken from paper PMC6566782, “Prodrugs for Skin Delivery of Menahydroquinone-4, an Active Form of Vitamin K2(20), Could Overcome the Photoinstability and Phototoxicity of Vitamin K2(20)” (International Journal of Molecular Sciences, 2019).
Where a name gives a salt, the structure may show the parent alone. Read-outs that look alike come from different tables or passages of the source.

How the values were obtained:
[1] = Photostability in ethanol under artificial sunlight (12,000 lx), LC-MS/MS; type: physicochemical; settings: for main degradation product: sunlight irradiation (MKH-SUC also under shading); for photostability relative to MK-4: ethanol; for half-life at 1 µM: ethanol solution in quartz cells, read-out: half-life (t1/2) of degradation (converted)
Description: The relative irradiance of artificial sunlight at wavelengths of 300 to 800 nm is almost equal to that of natural sunlight, according to the manufacturer. […] MKH-SUC concentration decreased according to an apparent first order rate both with and without shading, although the rate of decrease was accelerated without shading. MKH-DMG and MKH-SUC were more photostable than MK-4 by ca. 50- and 3-fold, respectively.
(§1) Solutions of MK-4 and MKH derivatives in ethanol (1 µM) were irradiated with artificial sunlight (SOLAX 100 W XC-100 B, Seric Ltd., Tokyo, Japan) at 12,000 lx in quartz cells. Illuminance was measured using a digital luminometer (LX-1108, Mother Tool). Irradiation samples (1 µM in ethanol) were irradiated with artificial sunlight at 12,000 lx, and with monochromatic light (279, 341, 373, 404, and 435 nm) using a multi-wavelength irradiation spectrometer (MM 3, Bunkoukeiki Co., Ltd., Tokyo, Japan). Irradiation intensity was measured using an irradiation energy measurement power meter (MM 3, Bunkoukeiki Co., Ltd.).
(§2) LC-MS/MS was performed using an LCMS-8050 Liquid Chromatograph Mass Spectrometer (Shimadzu, Kyoto, Japan) and Shimadzu HPLC System (system controller (CBM-20A), pump (LD-20AD), degasser (DGU-20As), UV detector (SPD-20A), and auto injector (SIL-20AC HT)). Separations were performed on a CAPCELL PAK C18 UG120 (3 μm, 2.0 mm × 100 mm, Shiseido Co., Ltd., Tokyo, Japan) using a mobile phase of 10 mmol/L ammonium acetate and 0.1% acetic acid in methanol and water (97:3) at a flow rate of 0.4 mL/min. Column temperature was maintained at 40 °C. The mass spectrometer was equipped with an electrospray ionization and was run in positive ion mode. Identification and quantitation were based on MS/MS-multiple reaction monitoring mode using transition ions as follows: m/z 445 → 187 for the [M+H]^+ MK-4 adduct, m/z 445 → 187 for the [M + H]^+ chromenol adduct, 619 → 58 for the [M + H]^+ MKH-DMG adduct, m/z 532 → 58 for the [M + H]^+ MKH-mono-DMG adduct, m/z 664 → 187 for the [M + H]^+ MKH-SUC adduct, m/z 564 → 187 for the [M + H]^+ MKH-mono-SUC adduct, and m/z 461 → 81 for the [M + H]^+ MKO adduct.

[2] = Photostability in ethanol under monochromatic light of different wavelengths, LC-MS/MS; type: physicochemical; set-up: key: -: No decomposition; settings: 1 µM in ethanol, 25 °C
Description: To evaluate the effect of irradiation wavelength on photostability of MK-4 and MKH-ester derivatives, 1 μM solutions of MK-4, MKH-DMG, and MKH-SUC in ethanol were irradiated with a xenon light source monochromatic light at 279, 341, 373, 404, or 435 nm, and the concentration of each compound was measured by LC-MS/MS. The log of concentration of each compound was plotted against irradiation energy (Figure 3), and the rates and half-life energies of degradation were obtained from slopes (Table 2). […] Hydrolytic degradations of MKH-DMG and MKH-SUC to their corresponding monoesters were accelerated only at the short wavelength of 279 nm (Figure 3B,C).
as §1, §2

[3] = Singlet oxygen generation assay (p-nitrosodimethylaniline-based ROS assay) after UVA irradiation; type: physicochemical; settings: phosphate-buffered aqueous solution pH 7.4, UVA irradiation 0–15 J/cm^2
Description: It has been reported that singlet oxygen promotes the peroxidation of skin surface lipids, resulting in the induction of skin inflammation. Thus, we measured the irradiation intensity-dependent generation of singlet oxygen by MK-4, MKH-DMG, and MKH-SUC in phosphate-buffered aqueous solution after UVA irradiation using a p-nitrosodimethylaniline-based ROS assay (Figure 4).
MK-4 and MKH derivatives were dissolved in a phosphate buffer (NaPB, pH 7.4) containing 0.2% polyoxyethylene hydrogenated castor oil 40 (HCO 40, obtained as a gift sample from Nikko Chemicals Co., Ltd., Osaka, Japan), 2% dimethyl sulfoxide, and 0.1% glycerol. The solutions were treated according to the singlet oxygen assay method (The Japanese Center for the Validation of Alternative Methods, JaCVAM) and irradiated with UVA light from a CL-1000L UV Crosslinker (UVP, Upland, CA, USA). Absorbance was measured using an Infinite M200 PRO (Tecan Life Sciences, Zurich, Switzerland).

[4] = system: HaCaT cells; assay: Intracellular ROS generation assay (DCFH-DA) with or without UVA irradiation; type: cell-based, Human; settings: UVA irradiation 15 J/cm^2
Description: (§3) The in vitro phototoxicity of MK-4 and MKH derivatives were assessed by measuring the intracellular ROS generation and the viability of human epidermal keratinocyte cells (HaCaT) after UVA irradiation in the presence or absence of MK-4 and MKH derivatives. Intracellular ROS generation was determined using the cell permeable probe 2′,7′-dichlorofluorescein diacetate (DCFH-DA), which rapidly reacts with hydroxyl radicals. Cells without drug treatment or UVA irradiation were used as the control. ROS generation and cell viability are shown in Figure 5 and Figure 6, respectively.
Intracellular ROS generation was measured using 2′,7′-dichlorofluorescein diacetate (DCFH-DA; Invitrogen, Carlsbad, CA, USA) as a fluorescent probe. HaCaT cells were seeded at 1.0 × 10^5 cells/well in 96-well plates and cultured overnight. Thereafter, cells were washed with PBS and incubated with 10 µM DCFH-DA solution in PBS at 37 °C for 1 h. Following incubation, test compound solutions in PBS described above were added to each well and re-incubated for 1 h. After incubation, cells were irradiated with UVA at an irradiation intensity of 15 J/cm^2 and the fluorescence intensity (Ex: 485 nm, Em: 530 nm) was measured using an Infinite M200 PRO (Tecan Life Sciences).

[5] = system: HaCaT cells; assay: Cell viability assay (CellTiter-Glo) 24 h after UVA irradiation; type: cell-based, Human; settings: 24 h after UVA irradiation 15 J/cm^2
Description: as §3
HaCaT cells were seeded at 1.0 × 10^5 cells/well in 96-well plates and cultured overnight. Thereafter, cells were washed with PBS, and test compound solutions in PBS described above were added to each well and re-incubated for 1 h. After incubation, cells were irradiated with UVA at an irradiation intensity of 15 J/cm^2. After irradiation, cells were washed twice with PBS and replaced in culture medium. After 24 h incubation, cell viability was measured using a CellTiter-Glo® Luminescent Cell Viability Assay (Promega, Madison, WI, USA).

[6] = set-up: method as in PMID 7724483; settings: physiological pH 7.4 ref 14; cited from earlier work
[7] = system: hepatocellular carcinoma (HCC) cells; set-up: method as in PMID 30013007; settings: compared with MK-4 ref 17; cited from earlier work
[8] = system: cultured epidermis; set-up: method as in doi:10.2772/23121; settings: UVA irradiation ref 13; cited from earlier work
[9] = 1 µM in ethanol, artificial sunlight 12,000 lx, 25 °C
[10] = artificial sunlight 12,000 lx, 25 °C
[11] = 1 µM in ethanol, shading (covered with aluminum foil during irradiation), 25 °C

| apparent first order rate constant (k) of degradation [1, 9] [h⁻¹] | main degradation product ([1]; 1 µM in ethanol) | photostability relative to MK-4 [1, 10] | half-life at 1 µM [1, 9] [min] | rate constant (k) of degradation ([2]; monochromatic light 279 nm) [J^−1·cm^2] | rate constant (k) of degradation ([2]; monochromatic light 341 nm) | rate constant (k) of degradation ([2]; monochromatic light 373 nm) | rate constant (k) of degradation ([2]; monochromatic light 404 nm) | rate constant (k) of degradation ([2]; monochromatic light 435 nm) | singlet oxygen generation [3] | intracellular ROS level [4] | Compound | cell viability [5] | delivery of MKH into HCC cells [7] | further results |
| --- | --- | --- | --- | --- | --- | --- | --- | --- | --- | --- | --- | --- | --- | --- |
| 0.167 | MKH-mono-DMG | ca. 50 fold | 249 | 0.146 | - ^b | - ^b | - ^b | - ^b | little generation of singlet oxygen | no significant changes | CC(C)=CCC/C(C)=C/CC/C(C)=C/CC/C(C)=C/Cc1c(C)c(OC(=O)CN(C)C)c2ccccc2c1OC(=O)CN(C)C [MKH-DMG, menahydroquinone-4 1,4-bis-N,N-dimethylglycinate hydrochloride] | unaffected | more effectively than MK-4 | concentration change under shading ([1]; 1 µM in ethanol, shading, 25 °C): unchanged under shading; half-life energy (E1/2) of degradation ([2]; monochromatic light 341 nm): - ^b; half-life energy (E1/2) of degradation ([2]; monochromatic light 373 nm): - ^b; half-life energy (E1/2) of degradation ([2]; monochromatic light 404 nm): - ^b; half-life energy (E1/2) of degradation ([2]; monochromatic light 435 nm): - ^b; partition coefficient (log P) [6]: 3.66 |
| 2.796 | MKH-mono-SUC | ~3 fold | 14.9 | 0.110 | 0.069 J^−1·cm^2 | 0.059 J^−1·cm^2 | 0.061 J^−1·cm^2 | 0.068 J^−1·cm^2 | little generation of singlet oxygen | no significant changes | CC(C)=CCC/C(C)=C/CC/C(C)=C/CC/C(C)=C/Cc1c(C)c(OC(=O)CCC(=O)O)c2ccccc2c1OC(=O)CCC(=O)O [MKH-SUC, menahydroquinone-4 1,4-bis-hemisuccinate] | unaffected | more effectively than MK-4 | apparent first order rate constant (k) of degradation [1, 11]: 0.883 h⁻¹; half-life at 1 µM [1, 11]: 47.1 min |
| – | – | – | – | – | – | – | – | – | little generation of singlet oxygen | – | COc1cc(O)c(C(=O)c2ccccc2)cc1S(=O)(=O)O [sulisobenzone, reference compound] | – | – | – |
| – | – | – | – | – | – | – | – | – | – | – | CC1=C(C/C=C(\C)CCC[C@H](C)CCC[C@H](C)CCCC(C)C)C(=O)c2ccccc2C1=O [vitamin K1] | – | – | phototoxicity against cultured epidermis [8]: exhibits phototoxicity |
